According to patent US8063218B2, “Imidazopyridine inhibitors of IAP” (Genentech, Inc., priority 2006, dated 2011):

Target: T1, MLXBIR3SG (Homo sapiens, UniProt Q96CA5, S150G)
T1 sequence (Q96CA5 with tags, fused parts or gaps S150G limits assumed): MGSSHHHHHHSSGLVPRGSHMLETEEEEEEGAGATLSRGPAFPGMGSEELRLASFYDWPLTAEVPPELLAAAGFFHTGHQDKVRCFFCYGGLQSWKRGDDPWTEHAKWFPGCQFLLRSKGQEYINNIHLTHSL
Experiment: Fluorescence Polarization Peptide Binding Assay (competition with AVP-diPhe-FAM probe)
Conditions: competition: MLXBIR3SG at 30 nM, 5 nM AVP-diPhe-FAM probe; Ki determined from the IC50 values
Experimental: In the following experiments was used a chimeric BIR domain referred to as MLXBIR3SG in which 11 of 110 residues correspond to those found in XIAP-BIR3, while the remainder correspond to ML-IAP-BIR. […] The improved caspase-9 inhibition of the chimeric BIR domain MLXBIR3SG has been correlated with increased inhibition of doxorubicin-induced apoptosis when transfected into MCF7 cells. MLXBIR3SG sequence:
Fluorescence Polarization Peptide Binding Assay
Polarization experiments were performed on an Analyst HT 96-384 (Molecular Devices Corp.) according to the procedure of Keating, S. M., Marsters, J, Beresini, M., Ladner, C., Zioncheck, K., Clark, K., Arellano, F., and Bodary., S. (2000) in Proceedings of SPIE: In Vitro Diagnostic Instrumentation (Cohn, G. E., Ed.) pp 128-137, Bellingham, Wash. Samples for fluorescence polarization affinity measurements were prepared by addition of 1:2 serial dilutions starting at a final concentration of 5 μM of MLXBIR3SG in polarization buffer (50 mM Tris [pH 7.2], 120 mM NaCl, 1% bovine globulins 5 mM DTT and 0.05% octylglucoside) to 5-carboxyflourescein-conjugated AVPdi-Phe-NH2 (AVP-diPhe-FAM) at 5 nM final concentration.
The reactions were read after an incubation time of 10 minutes at room temperature with standard cut-off filters for the fluorescein fluorophore (λex=485 nm; λem=530 nm) in 96-well black HE96 plates (Molecular Devices Corp.). Fluorescence values were plotted as a function of the protein concentration, and the IC50s were obtained by fitting the data to a 4-parameter equation using Kaleidograph software (Synergy software, Reading, Pa.). Competition experiments were performed by addition of the MLXBIR3SG at 30 nM to wells containing 5 nM of the AVP-diPhe-FAM probe as well as 1:3 serial dilutions of antagonist compounds starting at a concentration of 300 μM in the polarization buffer. Samples were read after a 10-minute incubation. Fluorescence polarization values were plotted as a function of the antagonist concentration, and the IC50 values were obtained by fitting the data to a 4-parameter equation using Kaleidograph software (Synergy software, Reading, Pa.). Inhibition constants (Ki) for the antagonists were determined from the IC50 values.

SMILES	Ki [µM]
CN[C@@H](C)C(=O)N[C@H](C(=O)N1CCC[C@H]1c1cn2c(-c3ccccc3)cccc2n1)C1CCOCC1 [Compound 1]	0.0891
CN[C@@H](C)C(=O)N[C@H](C(=O)N1CCC[C@H]1c1cn2cccc(-c3ccc(N(C)C)cc3)c2n1)C1CCOCC1 [Compound 7]	18.9
CN[C@@H](C)C(=O)N[C@H](C(=O)N1CCC[C@H]1c1cn2cccc(-c3ccc([N+](=O)[O-])cc3)c2n1)C1CCOCC1 [Compound 8]	2.31
CN[C@@H](C)C(=O)N[C@H](C(=O)N1CCC[C@H]1c1cn2cccc(-c3cccc4ccccc34)c2n1)C1CCOCC1 [Compound 20]	1.83
